In patent US7964598B2 (The J. David Gladstone Institutes, priority 1995, dated 2011):

Columns and labels:
[1] = system: HepG2 cells; assay: Cell association of 125I-apoE-enriched β-VLDL by HepG2 cells; format: cell-based, human
[2] = system: wild-type CHO cells; assay: Pulse chase of 125I-apoE+β-VLDL, wild-type CHO cells; format: cell-based, Chinese hamster; conditions: for Total: recovery in the fractions; for bound to the cells at 4° C. (zero time): wild-type CHO cells
Procedure: Cultured cells were grown to ˜100% confluence, placed on ice, and washed twice with cold DMEM-Hepes. The cells were then incubated with ^125I-apoE+β-VLDL at 4° C. for 1 h to allow for cell-surface binding (zero time bound ligand). Cells were rinsed three times with cold F12 medium to remove unbound ligands. Prewarmed F12 medium was added; and the cells were incubated at 37° C. for the times indicated. At each point, the cells were again placed on ice, and the culture medium was collected. To 0.5 ml of medium was added 0.4 ml of 0.2% bovine serum albumin (Sigma) and 0.4 ml of 50% trichloroacetic acid (TCA). The medium was then incubated at 4° C. for 30 min and centrifuged at 3,000 rpm for 10 min. The supernatant was collected for ^125I-apoE degradation assay, and the pellet was counted as TCA-precipitable intact ^125I-apoE. The cells were washed once with cold DMEM-Hepes, incubated with 10 mM suramin on ice in a cold room for 30 min, and then dissolved in 0.1 N NaOH. Cellular radioactivity (internalized apoE) was measured with a gamma counter, and protein concentration was determined by Lowry's method.
To evaluate these possibilities, we conducted a modified A pulse-chase@ study in which CHO cells were incubated with ^125I-apoE-enriched β-VLDL for 1 h at 4° C., washed to remove unbound lipoproteins, and then warmed to 37° C. for various times to follow internalization, degradation, and retention (see Materials and Methods). At the specific times, the medium was removed for analysis of both degradation products (degraded apoE) and TCA-precipitable proteins (released intact apoE), and the cells were washed with suramin (suramin-releasable apoE) and then counted (internalized apoE).

[3] = system: emulsion particles; assay: Control emulsion binding assays without compounds; conditions: n = 9; no compound
Procedure: Preparation of emulsion particles. Triolein (160 mg) and L-alpha-Phosphatidylcholine (40 mg) are combined and dried under nitrogen. After the addition of 8 mls of buffer (10 mM Tris, 100 mM KCl, 1 mM EDTA, pH 8.0), the mixture is sonicated in a water bath to obtain a heterogeneous mix of emulsion particles. The particles are harvested by ultracentrifugation (TLA 100.2 rotor, 30,000 rpm for 30 minutes) and the subsequent lipid cake is removed by tube slicing and resuspended in 100 μt 20 mM Phosphate Buffer (PB). Triolein and phospholipid content are measured and total emulsion particle concentration is determined.
Radiolabelling Freshly denatured and renatured Apolipoprotein E3 and E4 are radiolabelled using Bolton-Hunter Reagent [^125I] (ICN). Specific Activity is determined using Lowry method and Gamma 8000 counter.
Binding Affinity Assay. […] In glass tubes, 25 μg of protein (with iodinated tracer) was reduced with 1% β-mercaptoethanol. Two hundred and fifty μg of emulsion particles and 2.5 μl of compound (10 mM stock) were added and the final mixture was brought up to 250 μl with 20 mM phosphate buffer (PB). The reaction mixture was then incubated in a 37° C. water bath for 2 hours before being transferred to 1.5 ml ultracentrifuge tubes. Finally, 50 μl of 60% sucrose was mixed with the sample and 400 μl 20 mM PB was carefully layered on top. Using a TLA 100.2 rotor, the tube was spun at 30,000 rpm for 30 minutes and subsequently cut to separate the floating emulsion particle layer from the free protein at the bottom of the tube. These fractions were then combined with the respective half of the actual tube and counted using a Gamma-8000.

[4] = system: Neuro-2a cells; assay: Metabolism of apoE-enriched β-VLDL by Neuro-2a cells; format: cell-based, mouse; conditions: for enhancement of cell association of β-VLDL: 125I-β-VLDL enriched with apoE; for cell association: purified 125I-apoE-enriched β-VLDL; for increase of cellular cholesterol content: β-VLDL enriched with apoE, compared with β-VLDL alone
Procedure: Rabbit β-VLDL (d<1.006 g/ml) were isolated from the plasma of New Zealand White rabbits fed a high-fat, high-cholesterol diet for 4 days. The ratio of cholesterol to protein in this β-VLDL ranged from ˜15 to 20:1. Human apoE-enriched β-VLDL were prepared by incubating apoE with β-VLDL at 37° C. for 1 h. For some experiments, the apoE-enriched β-VLDL were reisolated by fast-performance liquid chromatography as follows. Either ^125I-β-VLDL and unlabeled apoE or ^125I-apoE and unlabeled β-VLDL were mixed in a 1:1.5 ratio of β-VLDL protein to apoE and incubated at 37° C. for 1 h. The mixture (250 μl) was then fractionated by chromatography on a Superose 6 column (Pharmacia Fine Chemicals, Uppsala, Sweden, 10/50 HR). The flow rate was 0.5 ml/min, and 0.5 ml fractions were collected. The elution profile was monitored by quantitation of ^125I and cholesterol.
Cultured cells were grown to ˜100% confluence, washed twice with fresh serum-free medium, and incubated at 37° C. with apoE-enriched β-VLDL. Before addition to the cells, the β-VLDL and apoE were incubated together (5 and 7.5 μg of protein, respectively, unless otherwise indicated) for 1 h at 37° C. Some cells were incubated with 50 μM chloroquine, and inhibitor of lysosomal protease, at 37° C. for 2 h before addition of the apoE-enriched β-VLDL. At the times indicated, the cells were placed on ice, and the medium was assayed for protein degradation products. For the cell association studies, Neuro-2a cells were washed five times on ice with 0.1 M PBS containing 0.2% bovine serum albumin and once with 0.1 M PBS. Cell-associated ligand represents both bound and internalized material. The fibroblasts were washed three times with DMEM-Hepes on ice and incubated with 10 mM suramin at 4° C. for 30 min to remove surface-bound ligand. The radioactivity remaining within the cells represents that which was “internalized.” After washing, the cells were dissolved in 0.1 N NaOH for measurement of radioactivity and protein concentration.
The cells were then washed and solubilized with 0.1 N NaOH, and the cell-associated DiI, which is proportional to the total amount of lipoprotein metabolized (bound, internalized, and degraded), was assayed.

| Substance | cell association ([1]; 4 hours) | cell association ([1]; 8 hours) | Total ([2]; 30 min) | Degraded ([2]; 30 min at 37° C.) | Internalized (retained) ([2]; 30 min at 37° C.) | Suramin-releasable (cell surface) ([2]; 30 min at 37° C.) | TCA-precipitable (released intact) ([2]; 30 min at 37° C.) | Total ([2]; 60 min) | Degraded ([2]; 60 min at 37° C.) | Internalized (retained) ([2]; 60 min at 37° C.) | Suramin-releasable (cell surface) ([2]; 60 min at 37° C.) | TCA-precipitable (released intact) ([2]; 60 min at 37° C.) | Total ([2]; 120 min) | Degraded ([2]; 120 min at 37° C.) | Internalized (retained) ([2]; 120 min at 37° C.) | Suramin-releasable (cell surface) ([2]; 120 min at 37° C.) | TCA-precipitable (released intact) ([2]; 120 min at 37° C.) | bound to the cells at 4° C. (zero time) [2] | Mean % bound [3] | Mean % free [3] | also measured |
| --- | --- | --- | --- | --- | --- | --- | --- | --- | --- | --- | --- | --- | --- | --- | --- | --- | --- | --- | --- | --- | --- |
| apoE3: human apolipoprotein E3 isoform, also iodinated | 1062 ± 171 ng/mg cell protein | 1466 ± 38 ng/mg cell protein | 399 ng/mg cell protein | 15 ng/mg cell protein | 157 ng/mg cell protein | 45 ng/mg cell protein | 182 ng/mg cell protein | 377 ng/mg cell protein | 34 ng/mg cell protein | 123 ng/mg cell protein | 39 ng/mg cell protein | 181 ng/mg cell protein | 367 ng/mg cell protein | 45 ng/mg cell protein | 78 ng/mg cell protein | 12 ng/mg cell protein | 232 ng/mg cell protein | 399 ng/mg of cell protein | 29.8% | 70.2% | Median % bound [3]: 33%; Median % free [3]: 67%; Range % bound [3]: 20-39%; Range % free [3]: 61-81%; enhancement of cell association of β-VLDL [4]: ~1.7 fold; cell association ([4]; 2 h): 58 ng/mg of cell protein; cell association ([4]; 4 h): 101 ng/mg of cell protein; increase of cellular cholesterol content [4]: ~1.5 fold |
| apoE4: human apolipoprotein E4 isoform, also iodinated | 51 ± 10 ng/mg cell protein | 683 ± 6 ng/mg cell protein | 368 ng/mg cell protein | 12 ng/mg cell protein | 84 ng/mg cell protein | 27 ng/mg cell protein | 245 ng/mg cell protein | 338 ng/mg cell protein | 35 ng/mg cell protein | 55 ng/mg cell protein | 10 ng/mg cell protein | 238 ng/mg cell protein | 305 ng/mg cell protein | 43 ng/mg cell protein | 27 ng/mg cell protein | 10 ng/mg cell protein | 225 ng/mg cell protein | 378 ng/mg of cell protein | 59.4% | 40.6% | Median % bound [3]: 60%; Median % free [3]: 40%; Range % free [3]: 30-50%; enhancement of cell association of β-VLDL [4]: ~1.7 fold; cell association ([4]; 2 h): 39 ng/mg of cell protein; cell association ([4]; 4 h): 65 ng/mg of cell protein; increase of cellular cholesterol content [4]: ~1.7 fold |
